IC50 data for 72 molecules are collected here from patent publication EP3319959B1, “HETERO-HALO INHIBITORS OF HISTONE DEACETYLASE” (Alkermes, Inc., priority 2015, dated 2017).

The test deals with recombinant human HDACs. Kind of test: HDAC enzymatic assay (LabChip capillary electrophoresis). It counts as biochemical. As to conditions: 5 nM HDAC enzyme, 1 uM substrate, 5 hours pre-incubation, 17 hours reaction at 25°C; isoform not given. How it is done:
All recombinant human HDACs were purchased from BPS Bioscience. The substrate, FAM-TSRHK(AC)KL-CONH, was synthesized at NanoSyn. Final assay reactions contained 100 mM HEPES (pH 7.5), 50 mM KCl, 0.1% BSA, 0.01% Triton X-100, 1% DMSO, 1 uM substrate and 5 nM HDAC enzyme. Enzyme and compounds were pre-incubated at 25°C for 5 hours and reactions were initiated by addition of substrate. 10 uL reactions were incubated for 17 hours at 25°C and terminated by the addition of 40 uL of buffer containing 100 mM HEPES (pH 7.5), 0.1% BSA, 0.01% Triton X-100 and 0.05% SDS. Substrate and product peptides present in each sample were separated electrophoretically using the LabChip 3000 capillary electrophoresis instrument. Change in the relative fluorescence intensity of the substrate and product peaks reflects enzyme activity. Reaction progress was determined as the product to sum ratio (PSR): P/(S+P), where P is the peak height of the product peptide and S is the peak height of the substrate peptide. Reactions were performed in duplicate at 12 concentrations, (3X serial dilutions starting at 30 uM). IC50 values were calculated using a 4 Parameter Logistic Model.

With `CN1CC(C(=O)Nc2nc(-c3ccc(F)cc3)ccc2N)C1` [Compound 204], the IC50 (in general, the point on the concentration scale where inhibition reaches its midpoint) was > 5 µM.

Consider `Nc1ccc(-n2cccn2)nc1NC(=O)C1CN(Cc2ccccc2)C1` [Compound 205], for which the IC50 was > 5 µM. In the case of `CN1CCn2cc(C(=O)Nc3nc(-c4ccccc4)ccc3N)nc2C1` [Compound 206] it was 0.5 to 5 µM. As to `Nc1ccc(-c2ccccc2)nc1NC(=O)c1cn2c(n1)CNCC2` [Compound 208], the IC50 fell in the range of 0.5 to 5 µM. In the case of `CN1CCC2(CC1)CCN(C(=O)Nc1nc(-c3cccnc3)ccc1N)C2` [Compound 210] it was > 5 µM; in that of `CN1CCCC2(CCN(C(=O)Nc3nc(-c4cccnc4)ccc3N)C2)C1` (stereo not drawn) [Compound 211], > 5 µM. In the case of `Nc1ccc(-c2ccccc2)nc1NC(=O)N1CCn2cncc2C1` [Compound 212] it was > 5 µM; in that of `Nc1ccc(-c2cccnc2)nc1NC(=O)N1Cc2nccnc2C1` [Compound 214], 0.5 to 5 µM. In the case of `Cn1cc(CN2CCC3(CC2)CCN(C(=O)Nc2nc(-c4cccnc4)ccc2N)C3)cn1` [Compound 215] it was > 5 µM.

Consider `Nc1ccc(-c2cccnc2)nc1NC(=O)N1Cc2cc(F)cnc2C1` [Compound 218], for which the IC50 was > 5 µM. Take `Nc1ccc(-c2cccnc2)nc1NC(=O)c1cn2c(n1)CNCC2` [Compound 219]: the IC50 was > 5 µM. As to `Nc1ccc(-c2cccnc2)nc1NC(=O)N1CC2(CCNCC2)C1` [Compound 220], the 50% inhibitory concentration (IC50) is > 5 µM. Next, `Nc1ccc(-c2cccnc2)nc1NC(=O)N1CCCC1` [Compound 221]: > 5 µM. Next, `COc1cccc(CN2CCCC3(CCN(C(=O)Nc4nc(-c5ccc(F)cc5)ccc4N)C3)C2)c1` (stereo not drawn) [Compound 222]: > 5 µM; `Cn1cc(CN2CCCC3(CCN(C(=O)Nc4nc(-c5ccc(F)cc5)ccc4N)C3)C2)cn1` (stereo not drawn) [Compound 223]: > 5 µM. For the molecule `Nc1ccc(-c2ccc(F)cc2)nc1NC(=O)N1CCN2CCCC2C1` (stereo not drawn) [Compound 224], the IC50 was > 5 µM. With `Cc1cnc(C(=O)Nc2nc(-c3ccc(F)cc3)ccc2N)s1` [Compound 226], the half-maximal inhibitory concentration (IC50) fell in the range of 0.1 to 0.5 µM.

For the molecule `Nc1ccc(-c2ccc(OC(F)F)cc2)nc1NC(=O)N1Cc2nccnc2C1` [Compound 228], the IC50 fell in the range of 0.5 to 5 µM. Regarding `Nc1ccc(-c2ccc(OC(F)F)cc2)nc1NC(=O)N1CCCC1` [Compound 232], the IC50 lay in the range of 0.5 to 5 µM. In the case of `Nc1ccc(-c2ccc(F)cc2)nc1NC(=O)N1CC2CN(CC3CCOCC3)CC2C1` (stereo not drawn) [Compound 235] it was > 5 µM; in that of `Nc1ccc(-c2ccc(F)cc2)nc1NC(=O)N1CC2CN(C3CCOCC3)CC2C1` (stereo not drawn) [Compound 236], > 5 µM; in that of `CN(C1CCOC1)C1CC2CN(C(=O)Nc3nc(-c4ccc(F)cc4)ccc3N)CC2C1` (stereo not drawn) [Compound 237], > 5 µM. For `Nc1ccc(-c2ccc(F)cc2)nc1NC(=O)N1C[C@@H]2[C@@H](CO)[C@@H]2C1` [Compound 238], the IC50 was in the range of 0.5 to 5 µM. In the case of `Nc1ccc(-c2ccc(F)cc2)nc1NC(=O)N1Cc2cnc(C3CCOCC3)cc2C1` [Compound 240] it was 0.1 to 0.5 µM. Regarding `CN(C)[C@H]1[C@@H]2CN(C(=O)Nc3nc(-c4ccc(F)cc4)ccc3N)C[C@@H]21` [Compound 242], the IC50 was > 5 µM. In the case of `CN1CC(Cn2ncc3c2CN(C(=O)Nc2nc(-c4ccc(F)cc4)ccc2N)C3)C1` [Compound 244] it was 0.5 to 5 µM. Next, `CN1CC(Cn2cc3c(n2)CN(C(=O)Nc2nc(-c4ccc(F)cc4)ccc2N)C3)C1` [Compound 245]: 0.1 to 0.5 µM; `CN1CC(n2ncc3c2CN(C(=O)Nc2nc(-c4ccc(F)cc4)ccc2N)C3)C1` [Compound 246]: > 5 µM. Next, `CN1CC(n2cc3c(n2)CN(C(=O)Nc2nc(-c4ccc(F)cc4)ccc2N)C3)C1` [Compound 247]: 0.1 to 0.5 µM; `CN(C1COC1)C1CC2CN(C(=O)Nc3nc(-c4ccc(F)cc4)ccc3N)CC2C1` (stereo not drawn) [Compound 248]: 0.5 to 5 µM. Turning to `Nc1ccc(-c2ccc(F)cc2)nc1NC(=O)N1Cc2cccc(N3CCCC3)c2C1` [Compound 249], the IC50 is > 5 µM.

For the molecule `Nc1cnc(-c2ccc(F)cc2)cc1NC(=O)N1Cc2cnc(N3CCC3)cc2C1` [Compound 254], the IC50 lay in the range of 0.5 to 5 µM.

As for `Nc1ccc(-c2ccc(F)cc2)nc1NC(=O)N1Cc2cnc(C3CC3)cc2C1` [Compound 255], the IC50 fell in the range of 0.1 to 0.5 µM. Next, `CN1CC(CN2CC3CN(C(=O)Nc4nc(-c5ccc(F)cc5)ccc4N)CC3C2)C1` (stereo not drawn) [Compound 256]: 0.5 to 5 µM; `Nc1ccc(-c2ccc(F)cc2)nc1NC(=O)N1Cc2cccc(F)c2C1` [Compound 259]: 0.1 to 0.5 µM. Next, `COc1cc2c(cn1)CN(C(=O)Nc1nc(-c3ccc(F)cc3)ccc1N)C2` [Compound 260]: 0.1 to 0.5 µM.

Regarding `Cc1cc(F)ccc1-c1ccc(N)c(NC(=O)N2Cc3cnc(CN(C)C)cc3C2)n1` [Compound 261], the half-maximal inhibitory concentration (IC50) is > 5 µM. Next, `CN(C1COC1)[C@H]1[C@@H]2CN(C(=O)Nc3nc(-c4ccc(F)cc4)ccc3N)C[C@@H]21` [Compound 262]: > 5 µM; `Nc1cn(-c2ccccc2)nc1NC(=O)N1Cc2ccc(CO)cc2C1` [Compound 350]: 0.5 to 5 µM; `CN(C)Cc1ccc2c(c1)CN(C(=O)Nc1nn(-c3ccccc3)cc1N)C2` [Compound 351]: 0.1 to 0.5 µM. Next, `CN1CCN(c2ccc3c(c2)CN(C(=O)Nc2nn(-c4ccccc4)cc2N)C3)CC1` [Compound 352]: 0.5 to 5 µM; `CN1CCN(Cc2ccc3c(c2)CN(C(=O)Nc2nn(-c4ccccc4)cc2N)C3)CC1` [Compound 353]: 0.5 to 5 µM.

In the case of `CN1CCC(C(=O)Nc2nn(-c3ccccc3)cc2N)CC1` [Compound 354], the IC50 was > 5 µM.

`Nc1cn(-c2ccccc2)nc1NC(=O)N1CCN(C2COC2)CC1` [Compound 356]: the IC50 was > 5 µM. Next, `Nc1cn(-c2ccccc2)nc1NC(=O)C1CCNCC1` [Compound 357]: > 5 µM; `CC(=O)N1CCC(C(=O)Nc2nn(-c3ccccc3)cc2N)CC1` [Compound 358]: > 5 µM.

`Nc1cn(-c2ccccc2)nc1NC(=O)C1CCN(C2COC2)CC1` [Compound 359]: the IC50 was > 5 µM. With `CC(=O)N1CCN(C(=O)Nc2nn(-c3ccccc3)cc2N)CC1` [Compound 360], the IC50 is > 5 µM. For the molecule `CN1CCN(C(=O)Nc2nn(-c3ccccc3)cc2N)CC1` [Compound 361], the IC50 was > 5 µM.

Regarding `CN1CC=C(c2ccc3c(c2)CN(C(=O)Nc2nc(-c4ccc(F)cc4)ccc2N)C3)CC1` [Compound 362], the IC50 fell in the range of 0.1 to 0.5 µM. Next, `COC1CCN(Cc2ccc3c(c2)CN(C(=O)Nc2nc(-c4ccc(F)cc4)ccc2N)C3)C1` (stereo not drawn) [Compound 363]: 0.1 to 0.5 µM; `Nc1ccc(-c2ccc(F)cc2)nc1NC(=O)N1CCC(F)(F)C1` [Compound 364]: 0.5 to 5 µM. Next, `CN(C)Cc1ccc2c(c1)CN(C(=O)Nc1nc(-c3ccco3)ccc1N)C2` [Compound 365]: 0.1 to 0.5 µM; `CN1CCC(N2CCC(C(=O)Nc3nc(-c4ccc(F)cc4)ccc3N)CC2)CC1` [Compound 368]: 0.5 to 5 µM.

As for `Nc1ccc(-n2cccn2)nc1NC(=O)N1Cc2ccncc2C1` [Compound 369], the IC50 was in the range of 0.5 to 5 µM. In the case of `Nc1ccc(-n2cccn2)nc1NC(=O)C1CCN(Cc2ccccc2F)CC1` [Compound 370] it was > 5 µM; in that of `Nc1ccc(-c2ccco2)nc1NC(=O)N1Cc2ccncc2C1` [Compound 372], 0.5 to 5 µM. As for `CN1CCN(c2ccc3c(c2)CN(C(=O)Nc2nc(-c4ccc(F)cc4)ccc2N)C3)CC1` [Compound 374], the 50% inhibitory concentration (IC50) fell in the range of 0.1 to 0.5 µM. Next, `CN1CCC(COC(=O)Nc2nc(-c3cccnc3)ccc2N)CC1` [Compound 375]: > 5 µM; `CN1CC(CC(=O)Nc2nc(-c3ccc(F)cc3)ccc2N)C1` [Compound 376]: > 5 µM; `Nc1ccc(-c2ccccc2)nc1NC(=O)C1CCN(Cc2cccnc2)CC1` [Compound 377]: > 5 µM. Next, `Nc1ccc(-c2cccnc2)nc1NC(=O)C1CCN(Cc2ccccc2F)CC1` [Compound 378]: > 5 µM; `Nc1ccc(-c2ccccc2)nc1NC(=O)C1CCN(Cc2ccccc2F)CC1` [Compound 379]: > 5 µM. Next, `CC(=O)N1CCC(C(=O)Nc2nc(-c3ccccc3)ccc2N)CC1` [Compound 380]: > 5 µM; `Nc1ccc(-c2ccccc2)nc1NC(=O)C1CCN(C2COC2)CC1` [Compound 381]: > 5 µM.

With `Nc1cn(-c2ccccc2)nc1NC(=O)N1CC2COCC2C1` (stereo not drawn) [Compound 382], the IC50 is > 5 µM. In the case of `CN1CCC(c2ccc3c(c2)CN(C(=O)Nc2nn(-c4ccccc4)cc2N)C3)CC1` [Compound 383] it was 0.1 to 0.5 µM.

Consider `Nc1cn(-c2ccccc2)nc1NC(=O)N1CC2CCCC2C1` (stereo not drawn) [Compound 384], for which the IC50 is > 5 µM. Next, `Nc1ccc(-c2ccc(F)cc2)nc1NC(=O)N1CC2CCCC2C1` (stereo not drawn) [Compound 385]: 0.5 to 5 µM. On to `Nc1ccc(-c2ccc(F)cc2)nc1NC(=O)N1Cc2ccc(CN3CCC(F)(F)C3)cc2C1` [Compound 386], for which the IC50 was in the range of 0.1 to 0.5 µM. In the case of `CN1CCC(c2ccc3c(c2)CN(C(=O)Nc2nc(-c4ccc(F)cc4)ccc2N)C3)CC1` [Compound 387], the IC50 lay within 0.5 to 5 µM. In the case of `COC1CCN(C(=O)Nc2nc(-c3ccc(F)cc3)ccc2N)C1` (stereo not drawn) [Compound 388] it was 0.5 to 5 µM.
